Reference: PubChem BioAssay (NCI)
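These data come from cells grown in 96-well plates and exposed to compound for 48 hours at five concentrations. The concentration for 50% growth inhibition is given as GI50. TGI: concentration producing complete growth inhibition.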

Tests used:
Assay in all cases: NCI tumour cell line growth inhibition, 48 h
786-0 renal = tested on: 786-0 renal
A498 renal = tested on: A498 renal
A549 NSCLC = tested on: A549 NSCLC
ACHN renal = tested on: ACHN renal
BT-549 breast = tested on: BT-549 breast
CAKI-1 renal = tested on: CAKI-1 renal
CCRF-CEM leukemia = tested on: CCRF-CEM leukemia
COLO 205 colon = tested on: COLO 205 colon
DU-145 prostate = tested on: DU-145 prostate
EKVX NSCLC = tested on: EKVX NSCLC
HCC-2998 colon = tested on: HCC-2998 colon
HCT-116 colon = tested on: HCT-116 colon
HCT-15 colon = tested on: HCT-15 colon
HL-60(TB) leukemia = tested on: HL-60(TB) leukemia
HOP-62 NSCLC = tested on: HOP-62 NSCLC
HOP-92 NSCLC = tested on: HOP-92 NSCLC
HS 578T breast = tested on: HS 578T breast
HT29 colon = tested on: HT29 colon
IGROV1 ovarian = tested on: IGROV1 ovarian
K-562 leukemia = tested on: K-562 leukemia
KM12 colon = tested on: KM12 colon
LOX IMVI melanoma = tested on: LOX IMVI melanoma
M14 melanoma = tested on: M14 melanoma
MALME-3M melanoma = tested on: MALME-3M melanoma
MCF7 breast = tested on: MCF7 breast
MDA-MB-231 breast = tested on: MDA-MB-231 breast
MDA-MB-435 = tested on: MDA-MB-435
MDA-MB-468 breast = tested on: MDA-MB-468 breast
NCI-H226 lung = tested on: NCI-H226 lung
NCI-H23 lung = tested on: NCI-H23 lung
NCI-H460 lung = tested on: NCI-H460 lung
NCI-H522 lung = tested on: NCI-H522 lung
OVCAR-3 ovarian = tested on: OVCAR-3 ovarian
OVCAR-4 ovarian = tested on: OVCAR-4 ovarian
OVCAR-5 ovarian = tested on: OVCAR-5 ovarian
OVCAR-8 ovarian = tested on: OVCAR-8 ovarian
PC-3 prostate = tested on: PC-3 prostate
RPMI-8226 leukemia = tested on: RPMI-8226 leukemia
RXF 393 renal = tested on: RXF 393 renal
SF-268 CNS = tested on: SF-268 CNS
SF-295 CNS = tested on: SF-295 CNS
SF-539 CNS = tested on: SF-539 CNS
SK-MEL-2 melanoma = tested on: SK-MEL-2 melanoma
SK-MEL-28 melanoma = tested on: SK-MEL-28 melanoma
SK-MEL-5 melanoma = tested on: SK-MEL-5 melanoma
SK-OV-3 ovarian = tested on: SK-OV-3 ovarian
SN12C renal = tested on: SN12C renal
SNB-19 CNS = tested on: SNB-19 CNS
SNB-75 CNS = tested on: SNB-75 CNS
SR leukemia = tested on: SR leukemia
SW-620 colon = tested on: SW-620 colon
T-47D breast = tested on: T-47D breast
TK-10 renal = tested on: TK-10 renal
U251 CNS = tested on: U251 CNS
UACC-257 melanoma = tested on: UACC-257 melanoma
UACC-62 melanoma = tested on: UACC-62 melanoma
UO-31 renal = tested on: UO-31 renal

Cn1nc(C(F)(F)F)cc1-c1cc(Cl)c(COc2ccc(Cl)cc2)c(-c2ccc(Cl)c(C(F)(F)F)c2)c1O
GI50 (786-0 renal): 2.62 µM
TGI (786-0 renal): 7.97 µM
GI50 (A498 renal): 2.53 µM
TGI (A498 renal): 7.3 µM
GI50 (A549 NSCLC): 3.36 µM
TGI (A549 NSCLC): 15.5 µM
GI50 (ACHN renal): 2.23 µM
TGI (ACHN renal): 9.21 µM
GI50 (BT-549 breast): 1.85 µM
TGI (BT-549 breast): 7.48 µM
GI50 (CAKI-1 renal): 2.17 µM
TGI (CAKI-1 renal): 7.56 µM
GI50 (CCRF-CEM leukemia): 1.75 µM
TGI (CCRF-CEM leukemia): 10.8 µM
GI50 (COLO 205 colon): 1.38 µM
TGI (COLO 205 colon): 2.75 µM
GI50 (DU-145 prostate): 3.08 µM
TGI (DU-145 prostate): 14.1 µM
GI50 (EKVX NSCLC): 2.51 µM
TGI (EKVX NSCLC): 10.4 µM
GI50 (HCC-2998 colon): 1.68 µM
TGI (HCC-2998 colon): 10.5 µM
GI50 (HCT-116 colon): 1.71 µM
TGI (HCT-116 colon): 10.5 µM
GI50 (HCT-15 colon): 1.28 µM
TGI (HCT-15 colon): 7.14 µM
GI50 (HL-60(TB) leukemia): 2.18 µM
TGI (HL-60(TB) leukemia): 5.69 µM
GI50 (HOP-62 NSCLC): 3.26 µM
TGI (HOP-62 NSCLC): 10.8 µM
GI50 (HOP-92 NSCLC): 1.61 µM
TGI (HOP-92 NSCLC): 4.38 µM
GI50 (HS 578T breast): 1.82 µM
TGI (HS 578T breast): 6.58 µM
GI50 (HT29 colon): 3.36 µM
TGI (HT29 colon): 14.6 µM
GI50 (IGROV1 ovarian): 2.92 µM
TGI (IGROV1 ovarian): 14.3 µM
GI50 (K-562 leukemia): 0.509 µM
TGI (K-562 leukemia): > 100 µM
GI50 (KM12 colon): 2.85 µM
TGI (KM12 colon): 10.8 µM
GI50 (LOX IMVI melanoma): 3.11 µM
TGI (LOX IMVI melanoma): 10.6 µM
GI50 (M14 melanoma): 2.74 µM
TGI (M14 melanoma): 8.16 µM
GI50 (MALME-3M melanoma): 1.96 µM
TGI (MALME-3M melanoma): 5.16 µM
GI50 (MCF7 breast): 1.26 µM
TGI (MCF7 breast): 10 µM
GI50 (MDA-MB-231 breast): 1.88 µM
TGI (MDA-MB-231 breast): 5.2 µM
GI50 (MDA-MB-435): 3.02 µM
TGI (MDA-MB-435): 10.3 µM
GI50 (MDA-MB-468 breast): 1.95 µM
TGI (MDA-MB-468 breast): 8.03 µM
GI50 (NCI-H226 lung): 2.72 µM
TGI (NCI-H226 lung): 9.52 µM
GI50 (NCI-H23 lung): 1.45 µM
TGI (NCI-H23 lung): 4.77 µM
GI50 (NCI-H460 lung): 1.27 µM
TGI (NCI-H460 lung): 7.3 µM
GI50 (NCI-H522 lung): 1.79 µM
TGI (NCI-H522 lung): 13.4 µM
GI50 (OVCAR-3 ovarian): 2.26 µM
TGI (OVCAR-3 ovarian): 12.6 µM
GI50 (OVCAR-4 ovarian): 3.11 µM
TGI (OVCAR-4 ovarian): 13.5 µM
GI50 (OVCAR-5 ovarian): 3.83 µM
TGI (OVCAR-5 ovarian): 13.5 µM
GI50 (OVCAR-8 ovarian): 3.09 µM
TGI (OVCAR-8 ovarian): 14.5 µM
GI50 (PC-3 prostate): 1.57 µM
TGI (PC-3 prostate): 10.5 µM
GI50 (RPMI-8226 leukemia): 1.06 µM
TGI (RPMI-8226 leukemia): 5.4 µM
GI50 (RXF 393 renal): 1.64 µM
TGI (RXF 393 renal): 5.54 µM
GI50 (SF-268 CNS): 2.33 µM
TGI (SF-268 CNS): 13.1 µM
GI50 (SF-295 CNS): 1.88 µM
TGI (SF-295 CNS): 4.12 µM
GI50 (SF-539 CNS): 2.06 µM
TGI (SF-539 CNS): 5.69 µM
GI50 (SK-MEL-2 melanoma): 2.09 µM
TGI (SK-MEL-2 melanoma): 5.3 µM
GI50 (SK-MEL-28 melanoma): 2.88 µM
TGI (SK-MEL-28 melanoma): 11.7 µM
GI50 (SK-MEL-5 melanoma): 1.18 µM
TGI (SK-MEL-5 melanoma): 2.71 µM
GI50 (SK-OV-3 ovarian): 3.02 µM
TGI (SK-OV-3 ovarian): 11 µM
GI50 (SN12C renal): 1.26 µM
TGI (SN12C renal): 7.7 µM
GI50 (SNB-19 CNS): 2.25 µM
TGI (SNB-19 CNS): 13.1 µM
GI50 (SNB-75 CNS): 2 µM
TGI (SNB-75 CNS): 8.07 µM
GI50 (SR leukemia): 2.66 µM
TGI (SR leukemia): > 100 µM
GI50 (SW-620 colon): 3.13 µM
TGI (SW-620 colon): 12.1 µM
GI50 (T-47D breast): 0.724 µM
TGI (T-47D breast): 8.7 µM
GI50 (TK-10 renal): 3.3 µM
TGI (TK-10 renal): 15.6 µM
GI50 (U251 CNS): 2.42 µM
TGI (U251 CNS): 14.3 µM
GI50 (UACC-257 melanoma): 2.67 µM
TGI (UACC-257 melanoma): 10.5 µM
GI50 (UACC-62 melanoma): 1.45 µM
TGI (UACC-62 melanoma): 4.88 µM
GI50 (UO-31 renal): 2.57 µM
TGI (UO-31 renal): 8.6 µM
